Results on 41 molecules are retold here after patent publication US9955691B2, “Macrocyclic picolinamides as fungicides” (DOW AGROSCIENCES LLC, priority 2014, dated 2018).

Read-outs that look alike come from different tables or passages of the source.

In data set [1] the test system is Mycosphaerella graminicola; Anamorph: Septoria tritici. Put plainly: Fungicidal activity: Leaf Blotch of Wheat (SEPTTR). The settings on record: Zymoseptoria tritici, wheat leaf blotch; for pest or weed control at 121.5 g/ha: Low Volume (121.5 g/H); for pest or weed control at 100 µg/mL: High Volume (100 ppm). In kind it is in vivo. In a few lines: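 Compounds were dissolved in acetone, diluted with nine volumes of water containing 110 ppm Triton X-100, and sprayed to run-off on first-leaf Yuma wheat seedlings inoculated with Septoria tritici spores before or after treatment. Plants were held in a dew chamber, then a 20° C. greenhouse. Percent control was derived from disease severity relative to untreated plants.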

For data set [2], the system named is Puccinia triticina. Nature of the data set: Fungicidal activity: Wheat Brown Rust (PUCCRT). It is filed as in vivo. To be noted: for pest or weed control at 121.5 g/ha: Low Volume (121.5 g/H); for pest or weed control at 100 µg/mL: High Volume (100 ppm). In a few lines:
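Wheat seedlings (Yuma, first leaf) sprayed to run-off with compound in acetone/water with Triton X-100, inoculated with Puccinia triticina before or after treatment. Held overnight in dark dew at 22° C, then greenhouse at 24° C; percent disease control from severity versus untreated plants.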

The mark [3] stands for this setting: 24 h, 1 Day Protectant, read-out: SEPTTR 1 DP disease control.
[4] abbreviates: 72 h, 3 Day Curative, read-out: SEPTTR 3 DC disease control.
Where [5] appears, read: 24 h, 1 Day Protectant, read-out: PUCCRT 1 DP disease control.
The mark [6] stands for this setting: 72 h, 3 Day Curative, read-out: PUCCRT 3 DC disease control.

As a reminder, the melting point is the temperature of the solid-liquid transition. Turning to `COc1ccnc(C(=O)N[C@H]2COC[C@H](Cc3ccccc3)[C@@H](COc3ccccc3)[C@H](C)OC2=O)c1OC(C)=O` [compound 95, 2-(((3S,7R,8S,9S)-7-benzyl-9-methyl-2-oxo-8-(phenoxymethyl)-1,5-dioxonan-3-yl)carbamoyl)-4-methoxypyridin-3-yl acetate], the melting point lay within 70 to 74 °C. Also, the pest or weed control at 121.5 g/ha in data set [1] (setting [3]) was above 70%. Besides, the pest or weed control at 121.5 g/ha in data set [1] (setting [4]) is above 70%. The pest or weed control at 121.5 g/ha in data set [2] (setting [5]) was above 70%. In addition, the pest or weed control at 121.5 g/ha in data set [2] (setting [6]) was above 70%. Molecule `C[C@@H]1OC(=O)[C@@H](N)COC[C@H](Cc2ccccc2)[C@H]1COc1ccccc1.Cl` yielded a melting point of 209 to 214 °C. Consider `C[C@@H]1OC(=O)[C@@H](NC(=O)OC(C)(C)C)COC[C@H](Cc2ccccc2)[C@H]1Cc1ccc(OC(F)(F)F)cc1` [compound 223], for which the melting point lay in the range of 47 to 51 °C. Still for that read-out and setting: for `C[C@@H]1OC(=O)[C@@H](NC(=O)OC(C)(C)C)COC[C@H](Cc2ccc(Cl)cc2)[C@H]1C1CCCC1` [compound 237] the value was 113 to 115 °C; for `CC(C)CC[C@H]1COC[C@H](N)C(=O)O[C@@H](C)[C@@H]1C1CCCC1.Cl`, 149 to 153 °C. The molecule `C=C(C)COC[C@@H]1[C@@H](Cc2ccccc2)COC[C@H](NC(=O)OC(C)(C)C)C(=O)O[C@H]1C` [compound 208] had a melting point of 84 to 88 °C. Turning to `C=C(C)COC[C@@H]1[C@@H](Cc2ccccc2)COC[C@H](NC(=O)c2nccc(OC)c2OCOC(C)=O)C(=O)O[C@H]1C` [compound 11], the melting point is 35 to 40 °C. On the same count and under the same terms, for `CC(C)C[C@@H]1[C@@H](Cc2ccc(C(F)(F)F)cc2)COC[C@H](NC(=O)OC(C)(C)C)C(=O)O[C@H]1C` [compound 229] the value was 115 to 118 °C; for `C=C[C@@H]1[C@@H](Cc2ccccc2)COC[C@H](N)C(=O)O[C@H]1C.Cl`, 208 °C (dec.); for `C[C@@H]1OC(=O)[C@@H](N)COC[C@H](Cc2ccccc2)[C@H]1Cc1ccccc1.Cl`, 196 to 202 °C. For the molecule `C=C[C@@H]1[C@@H](Cc2ccccc2)COC[C@H](NC(=O)c2nccc(OC)c2O)C(=O)O[C@H]1C` [compound 118], the melting point lay within 57 to 63 °C. On to `C[C@@H]1OC(=O)[C@@H](N)COC[C@H](CC2CC2)[C@H]1Cc1ccccc1.Cl`, for which the melting point lay within 189 to 195 °C. Same read-out and setting: the result for `CCC[C@H]1COC[C@H](N)C(=O)O[C@@H](C)[C@@H]1Cc1ccc(F)cc1.Cl` reads 184 to 187 °C. Still for that read-out and setting: the result for `C[C@@H]1OC(=O)[C@@H](NC(=O)OC(C)(C)C)COC[C@H](Cc2ccc(C(F)(F)F)cc2)[C@H]1Cc1ccc(OC(F)(F)F)cc1` [compound 225] reads 50 to 56 °C; that for `C[C@@H]1OC(=O)[C@@H](N)COC[C@H](Cc2ccc(C(F)(F)F)cc2)[C@H]1Cc1ccc(OC(F)(F)F)cc1.Cl`, 172 to 175 °C; that for `COc1cccc(C[C@H]2COC[C@H](N)C(=O)O[C@@H](C)[C@@H]2Cc2cccc(OC)c2)c1.Cl`, 181 to 186 °C (dec.). `C[C@@H]1OC(=O)[C@@H](NC(=O)OC(C)(C)C)COC[C@H](Cc2ccccc2)[C@H]1Cc1ccccc1` [Cmpd. 203, tert-butyl ((3S,7R,8R,9S)-7,8-dibenzyl-9-methyl-2-oxo-1,5-dioxonan-3-yl)carbamate] returned a melting point of 41 to 45 °C.

Turning to `CC(C)COC[C@@H]1[C@@H](Cc2ccccc2)COC[C@H](N)C(=O)O[C@H]1C.Cl`, the melting point was in the range of 196 to 199 °C.

In the case of `C=C[C@@H]1[C@@H](Cc2ccccc2)COC[C@H](NC(=O)OC(C)(C)C)C(=O)O[C@H]1C` [compound 205], the melting point lay in the range of 134 to 138 °C. On the same count and under the same terms, the result for `C=C(C)CCC[C@@H]1[C@@H](Cc2ccccc2)COC[C@H](N)C(=O)O[C@H]1C.Cl` reads 184 to 187 °C (dec.); that for `COc1ccnc(C(=O)N[C@H]2COC[C@H](Cc3ccccc3)[C@@H](c3ccccc3)[C@H](C)OC2=O)c1OCOC(=O)C(C)C` [compound 52], 69 to 73 °C. Same read-out and setting: for `CC(C)C[C@@H]1[C@@H](Cc2ccc(C(F)(F)F)cc2)COC[C@H](N)C(=O)O[C@H]1C.Cl` the value was 163 to 168 °C. Same read-out and setting: for `C[C@@H]1OC(=O)[C@@H](N)COC[C@H](CC2CCCC2)[C@H]1CC1CCCC1.Cl` the value was 164 to 167 °C; for `C[C@@H]1OC(=O)[C@@H](NC(=O)OC(C)(C)C)COC[C@H](CC2CCCCC2)[C@H]1CC1CCCCC1` [compound 206], 44 to 50 °C.

`C[C@@H]1OC(=O)[C@@H](N)COC[C@H](CCc2ccccc2)[C@H]1CCc1ccccc1.Cl`: the melting point is 184 °C (dec.). `C[C@H]1OC(=O)[C@@H](N)COC[C@H](Cc2ccccc2)[C@H]1Cc1ccccc1.Cl` returned a melting point of 206 to 211 °C. Same read-out and setting: for `C[C@@H]1OC(=O)[C@@H](NC(=O)OC(C)(C)C)COC[C@H](Cc2ccccc2)[C@H]1c1ccccc1` [compound 224] the value was 66 to 71 °C. On the same count and under the same terms, the result for `C[C@@H]1OC(=O)[C@@H](N)COC[C@H](CC2CCCCC2)[C@H]1CC1CCCCC1.Cl` reads 191 to 197 °C (dec.). On the same count and under the same terms, the result for `C[C@@H]1OC(=O)[C@@H](N)COC[C@H](Cc2ccc(Cl)cc2)[C@H]1C1CCCC1.Cl` reads 200 to 203 °C; that for `C[C@@H]1OC(=O)[C@@H](NC(=O)OC(C)(C)C)COC[C@H](c2ccccc2)[C@H]1c1ccccc1` [compound 204], 63 to 71 °C; that for `C[C@@H]1OC(=O)[C@@H](NC(=O)OC(C)(C)C)COC[C@H](CC2CCCC2)[C@H]1CC1CCCC1` [compound 215], 95 to 99 °C.

As for `C[C@@H]1OC(=O)[C@@H](N)COC[C@H](Cc2ccc(Cl)cc2)[C@H]1Cc1ccc(OC(F)(F)F)cc1.Cl`, the melting point lay in the range of 144 to 148 °C.

Consider `C[C@@H]1OC(=O)[C@@H](N)COC[C@H](CCCc2ccccc2)[C@H]1CCc1ccccc1.Cl`, for which the melting point is 147 to 151 °C.

With `COc1ccnc(C(=O)N[C@H]2COC[C@H](Cc3ccccc3)[C@@H](CCc3ccccc3)[C@H](C)OC2=O)c1O` [compound 128], the pest or weed control at 100 µg/mL in data set [1] (setting [3]) was above 70%; in data set [1] (setting [4]), above 70%; in data set [2] (setting [5]) it was above 70%; in data set [2] (setting [6]) it was below 70%.

As for `COc1ccnc(C(=O)N[C@H]2COC[C@H](Cc3ccc(C(F)(F)F)cc3)[C@@H](Cc3ccccc3)[C@H](C)OC2=O)c1OC(C)=O` [compound 55], the pest or weed control at 121.5 g/ha in data set [1] (setting [3]), in data set [1] (setting [4]), in data set [2] (setting [5]) and in data set [2] (setting [6]) was above 70% throughout. In the case of `COc1ccnc(C(=O)N[C@H]2COC[C@H](Cc3ccccc3)[C@@H](COCC(C)C)[C@H](C)OC2=O)c1OCOC(C)=O` [compound 12], the pest or weed control at 100 µg/mL in data set [1] (setting [3]), in data set [1] (setting [4]), in data set [2] (setting [5]) and in data set [2] (setting [6]) was above 70% throughout. For the same molecule, the pest or weed control at 121.5 g/ha in data set [1] (setting [3]) was above 70%; in data set [1] (setting [4]), above 70%; in data set [2] (setting [5]), above 70%; in data set [2] (setting [6]), below 70%. With `CCC[C@H]1COC[C@H](NC(=O)c2nccc(OC)c2OC(C)=O)C(=O)O[C@@H](C)[C@@H]1Cc1ccccc1` [compound 22], the pest or weed control at 121.5 g/ha in data set [1] (setting [3]), in data set [1] (setting [4]), in data set [2] (setting [5]) and in data set [2] (setting [6]) was above 70% throughout. Take `CCOCC(=O)OCOc1c(OC)ccnc1C(=O)N[C@H]1COC[C@H](CC2CC2)[C@@H](c2ccccc2)[C@H](C)OC1=O` [compound 103]: the pest or weed control at 121.5 g/ha in data set [1] (setting [3]), in data set [1] (setting [4]), in data set [2] (setting [5]) and in data set [2] (setting [6]) was above 70% throughout. Take `COc1ccnc(C(=O)N[C@H]2COC[C@H](CCCc3ccccc3)[C@@H](Cc3ccccc3)[C@H](C)OC2=O)c1OCOC(=O)C(C)C` [compound 43]: the pest or weed control at 121.5 g/ha in data set [1] (setting [3]) was above 70%; in data set [1] (setting [4]) it was above 70%; in data set [2] (setting [5]) it was above 70%; in data set [2] (setting [6]), below 70%.

Consider `COc1ccnc(C(=O)N[C@H]2COC[C@H](Cc3ccc(C(F)(F)F)cc3)[C@@H](Cc3ccc(F)cc3)[C@H](C)OC2=O)c1OC(C)=O` [compound 79], for which the pest or weed control at 121.5 g/ha in data set [1] (setting [3]) is above 70%; in data set [1] (setting [4]), below 70%; in data set [2] (setting [5]), above 70%; in data set [2] (setting [6]) it was below 70%. As for `CCC[C@H]1COC[C@H](NC(=O)c2nccc(OC)c2OC(C)=O)C(=O)O[C@@H](C)[C@@H]1CC(C)C` [compound 64], the pest or weed control at 121.5 g/ha in data set [1] (setting [3]), in data set [1] (setting [4]), in data set [2] (setting [5]) and in data set [2] (setting [6]) was above 70% throughout.
